Laboratory results as given in patent publication US5569471A, “Medicine for the treatment of tumor” (priority 1993, dated 1996).
Entries after “also recorded” stand apart in the source; their conditions may differ.

Legend:
[1] = Toxicity test; details: in vivo; species and route not given
Description: The LD50 value of 4-piperidino-piperidine is about 200 to 300 mg/kg. Therefore, ordinary dose will not cause any risk.

[2] = system: cisplatin-resistant human myeloid leukemia cells (K-562); experiment: Test for confirming the resistance dissolving effect, cisplatin-resistant cells; format: cell-based; details: FIG. 2; for cell killing effect, single dose: 4-piperidino-piperidine 2.5 μg/ml alone, cisplatin 1 alone, vs control
Source text: As drug-fast cells, two kinds of human myeloid leukemia cells (K-562) which had acquired drug resistance against adriamycin (ADR) and cisplatin were used (see Kaoru MIURA, et al., "NK and LAK cell sensitivity and HLA expression" 51st Conference of Japan Cancer Association, page 252, 1992; and Nobutaka IMAIZUMI, Yoichiro KUSUKI, Chie KAWACHI, et al., "Establishing adriamycin-resistant strains and review on the mechanism of resistance", Oncologoa, 21, 89-94, 1988). In the test, adriamycin (ADR), cisplatin, and 4-piperidino-piperidine were dosed singly or in combination against the two kinds of the drug-fast cells, and the number of the lethal cells were counted.

[3] = system: T-cells derived from human acute leukemia (RPMI-8402, T-ALL cells); experiment: Test for confirming the inhibitory effect on tumor cell propagation (6-day culture, counting of lethal and propagated cells); format: cell-based; details: 2.5, 12.5, 25, 50, 80 and 100 μg/ml, FIG. 1
Description: To samples of T-cells derived from human acute leukemia (RPMI-8402, T-ALL cells, see Minowada, J. and Moore, G. E., In Comparative Leukemia Research, Eds. Ito, Y. and Dutcher, R. M., Univ. Tokyo Press, Tokyo, pp. 251-261, 1975), 4-piperidino-piperidine (4-PP) in various concentrations was added (0, 2.5, 12.5, 25, 50, 80 and 100 μg/ml). After a 6-day culture, lethal cells and propagated cells were counted.

[4] = system: T-ALL cells; experiment: Test for confirming the effect of enhancing antitumor activity by a simultaneous dosage, T-ALL cells; format: cell-based, human; details: 4-piperidino-piperidine 2.5 μg/ml simultaneously, FIG. 4
Description: (§1) The numbers of the lethal cells were counted in cases where 4-piperidino-piperidine (2.5 μg/ml) and each of the ten kinds of the antitumor drugs listed in Table 3 were simultaneously dosed (in small amounts and large amounts for each drug), and where the ten kinds of the antitumor drugs were independently and singly dosed (in small amounts and large amounts for each drug).
(§2) The procedure of Example 9 was repeated by using human myeloblastic leukemia cells (K-562) in place of the T-ALL cells.

[5] = system: T-ALL cells; experiment: Test for confirming the effect of enhancing antitumor activity by successive dosage; format: cell-based, human; details: FIG. 3
Description: The tumor cell killing effect was investigated by successively administering 4-piperidino-piperidine and an antitumor drug to T-ALL cells.
First, T-ALL cells were cultured in a plurality of culture media containing 4-piperidino-piperidine at different concentrations (2.5, 12.5, 25 and 50 μg/ml) for 6 days. […] The results are shown in FIG. 3, which employes a relative expression where the number of lethal cells in the standard cell groups was taken as 100% (shown by a horizontal perforated line). The numbers 1, 2, 3 and 4 given for each drug indicate that the concentration of 4-piperidino-piperidine used for the culture is 2.5, 12.5, 25 and 50 μg/ml, respectively.

[6] = system: human myeloblastic leukemia cells (K-562); experiment: Test for confirming the effect of enhancing antitumor activity by a simultaneous dosage, K-562 cells; format: cell-based; details: 4-piperidino-piperidine 2.5 μg/ml simultaneously; drug doses of Table 3; FIG. 5
Description: as §1, §2

[7] = both drug concentrations (DNR 0.01/0.05, ACR 0.05/0.1, 5-FU 5/10 μg/ml)
[8] = 4-piperidino-piperidine precedently dosed at 12.5, 25 and 50 μg/ml, DNR 0.05, 5-FU 10 μg/ml
[9] = 4-piperidino-piperidine precedently dosed, all concentration groups (2.5, 12.5, 25 and 50 μg/ml), ACR 0.05, MTX 0.01 μg/ml
[10] = in the concentration of 0.05 μg/ml

C1CCN(C2CCNCC2)CC1 [4-piperidino-piperidine]
LD50 [1]: 200 to 300 mg/kg
cell killing effect, single dose [2]: almost the same cell killing effect as that of the control group
cell killing effect, simultaneous dose (resistance dissolving) ([2]; cisplatin and 4-piperidino-piperidine simultaneously dosed, compared with each dosed singly): significantly enhanced
number of propagated cells [3]: decreased in a dose-dependent manner
number of lethal cells (tumor cell killing effect) ([3]; vs control): does not have tumor cell killing effect per se; also recorded: not significantly different from the count of the control group

O=c1[nH]cc(F)c(=O)[nH]1 [5-FU, 5-Fluorouracil]
enhancement of antitumor activity by combined use with 4-piperidino-piperidine [4, 7]: enhanced
enhancement of antitumor drug effect (lethal cells relative to standard cells) [5, 8]: enhanced effects

CCC1(O)CC(OC2CC(N(C)C)C(OC3CC(O)C(OC4CCC(=O)C(C)O4)C(C)O3)C(C)O2)c2c(cc3c(c2O)C(=O)c2c(O)cccc2C3=O)C1C(=O)OC (stereo not shown) [ACR]
enhancement of antitumor activity by combined use with 4-piperidino-piperidine [4, 7]: enhanced
enhancement of antitumor drug effect (lethal cells relative to standard cells) [5, 9]: enhanced effects

COc1cccc2c1C(=O)c1c(O)c3c(c(O)c1C2=O)C[C@@](O)(C(=O)CO)C[C@@H]3O[C@H]1C[C@H](N)[C@H](O)[C@H](C)O1 [ADR]
enhancement of antitumor activity by combined use with 4-piperidino-piperidine [4, 10]: enhanced
enhancement of antitumor activity by combined use with 4-piperidino-piperidine [6]: enhanced

CCc1c2c(nc3ccc(OC(=O)N4CCC(N5CCCCC5)CC4)cc13)-c1cc3c(c(=O)n1C2)COC(=O)[C@]3(O)CC [CPT-11, 7-Ethyl-10-piperidino-piperidinocarboxycamptothecin]
enhancement of antitumor drug effect (lethal cells relative to standard cells) ([5]; 4-piperidino-piperidine precedently dosed at 25 and 50 μg/ml, CPT-11 10 μg/ml): enhanced

COc1cccc2c1C(=O)c1c(O)c3c(c(O)c1C2=O)C[C@@](O)(C(C)=O)C[C@@H]3O[C@H]1C[C@H](N)[C@H](O)[C@H](C)O1 [DNR]
enhancement of antitumor activity by combined use with 4-piperidino-piperidine [4, 7]: enhanced
enhancement of antitumor drug effect (lethal cells relative to standard cells) [5, 8]: enhanced effects
enhancement of antitumor activity by combined use with 4-piperidino-piperidine [6]: enhanced

CN(Cc1cnc2nc(N)nc(N)c2n1)c1ccc(C(=O)N[C@@H](CCC(=O)O)C(=O)O)cc1 [MTX]
enhancement of antitumor drug effect (lethal cells relative to standard cells) [5, 9]: enhanced effects
enhancement of antitumor activity by combined use with 4-piperidino-piperidine [6]: enhanced

O=C1c2c(O)ccc(O)c2C(=O)c2c(NCCNCCO)ccc(NCCNCCO)c21 [Mitoxantrone]
enhancement of antitumor drug effect (lethal cells relative to standard cells) ([5]; 4-piperidino-piperidine precedently dosed at 2.5 and 50 μg/ml, mitoxantrone 0.05 μg/ml): enhanced effects
enhancement of antitumor activity by combined use with 4-piperidino-piperidine [6]: enhanced

CC[C@]1(O)C[C@H]2CN(CCc3c([nH]c4ccccc34)[C@@](C(=O)OC)(c3cc4c(cc3OC)N(C=O)[C@H]3[C@@](O)(C(=O)OC)[C@H](OC(C)=O)[C@]5(CC)C=CCN6CC[C@]43[C@@H]65)C2)C1 [VCR]
enhancement of antitumor activity by combined use with 4-piperidino-piperidine [6]: enhanced

CC[C@]1(O)C[C@@H]2CN(CCc3c([nH]c4ccccc34)[C@@](C(=O)OC)(c3cc4c(cc3OC)N(C)[C@H]3[C@@](O)(C(N)=O)[C@H](O)[C@]5(CC)C=CCN6CC[C@]43[C@@H]65)C2)C1 [VDS]
enhancement of antitumor activity by combined use with 4-piperidino-piperidine [4, 10]: enhanced
enhancement of antitumor activity by combined use with 4-piperidino-piperidine [6]: enhanced

N.N.[Cl][Pt][Cl] [cisplatin]
cell killing effect, single dose [2]: almost the same cell killing effect as that of the control group
enhancement of antitumor activity by combined use with 4-piperidino-piperidine [6]: enhanced

COc1cc([C@@H]2c3cc4c(cc3[C@@H](O[C@@H]3O[C@@H]5CO[C@@H](C)O[C@H]5[C@H](O)[C@H]3O)[C@H]3COC(=O)[C@H]23)OCO4)cc(OC)c1O [etoposide]
enhancement of antitumor activity by combined use with 4-piperidino-piperidine [6]: enhanced
